Data taken from US12110294B2, “CD73 compounds” (Gilead Sciences, Inc., priority 2020, dated 2024).
Where two headings read alike, the source gives them in different places.

Key:
CD73 [1] = biological target: T1, CD73 (Homo sapiens, UniProt P21589); experiment: CD73 Biochemical IC50 Assay; settings: final AMP 15 uM, final CD73 0.3 nM, 25 mM Tris pH 7.4, 5 mM MgCl2, no phosphate
T1 construct: purchased R&D system
T1 sequence (P21589 27-549): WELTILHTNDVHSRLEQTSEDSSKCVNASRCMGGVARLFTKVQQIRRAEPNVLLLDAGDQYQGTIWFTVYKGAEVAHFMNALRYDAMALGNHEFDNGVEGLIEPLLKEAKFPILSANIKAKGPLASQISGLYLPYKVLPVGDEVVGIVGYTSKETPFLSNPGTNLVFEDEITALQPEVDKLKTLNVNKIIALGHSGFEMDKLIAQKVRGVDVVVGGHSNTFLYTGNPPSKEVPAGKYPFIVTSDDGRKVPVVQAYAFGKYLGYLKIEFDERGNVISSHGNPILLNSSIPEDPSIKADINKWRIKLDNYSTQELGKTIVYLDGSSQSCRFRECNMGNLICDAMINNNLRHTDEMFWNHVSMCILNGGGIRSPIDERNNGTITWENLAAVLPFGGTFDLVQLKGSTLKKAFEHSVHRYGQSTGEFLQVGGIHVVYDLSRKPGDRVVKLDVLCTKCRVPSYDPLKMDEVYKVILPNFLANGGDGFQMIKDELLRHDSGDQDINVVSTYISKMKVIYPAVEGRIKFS
Method: CD73 Biochemical IC50 Assay
Compound serial dilutions were pre-spotted into Thermo Nunc assay plate. 50 μL CD73 enzyme buffer (CD73 purchased from R&D system=0.6 nM, 25 mM Tris, pH 7.4, 5 mM MgCl2) was added into the assay plate and incubated for 15 mins. […] The samples were run using Rapid fire.

[2] = biological target: T2, CD73 activity in MDA-MB-231-GFP cells (Homo sapiens, UniProt P21589); experiment: MDA-MB-231 Cell Based CD73 Activity Assay; settings: 10000 cells per well, RPMI medium with 10% human plasma, overnight compound treatment, AMP 200 μM
T2 construct: endogenous in cells; host or cells: MDA-MB-231-GFP cells
T2 sequence (P21589 27-549): T1 sequence (P21589 27-549)
Method: MDA-MB-231 Cell Based CD73 Activity Assay
MDA-MB-231-GFP cells were seeded in 384-well plates (Greiner 781946) at a density of 10000 cells per well in 50 μL of RPMI medium with 10% HP (human plasma). Cells were plated into assay plate with compounds pre-spotted, for an overnight compound treatment. 50 μL of 400 μM AMP (final concentration 200 μM) using a Bio-tek dispenser. Plates were incubated for 100 mins. […] The samples were run using Rapid fire.

CD73 [3] = biological target: T1, CD73; type: biochemical; settings: 1 mM NaH2PO4 in enzyme buffer, final AMP 15 uM, final CD73 0.3 nM

| IC50 (CD73 [1]) | EC50 [2] | IC50 (CD73 [3]) | SMILES |
| --- | --- | --- | --- |
| 16.8 nM | 3.59 nM | – | O=c1[nH]cc(-c2cc([C@@H]3C[C@H]3c3ccccc3F)c3nccn3n2)c(=O)[nH]1 (racemic) [Example 28, 5-(8-((1S,2S)-2-(2-fluorophenyl)cyclopropyl)imidazo[1,2-b]pyridazin-6-yl)pyrimidine-2,4(1H,3H)-dione and 5-(8-((1R,2R)-2-(2-fluorophenyl)cyclopropyl)imidazo[1,2-b]pyridazin-6-yl)pyrimidine-2,4(1H,3H)-dione] |
| 16.3 nM | 7.08 nM | – | O=c1[nH]cc(-c2cc([C@H]3C[C@@H]3c3cccc(F)c3)c3nccn3n2)c(=O)[nH]1 (racemic) [Example 29, 5-(8-((1S,2S)-2-(3-fluorophenyl)cyclopropyl)imidazo[1,2-b]pyridazin-6-yl)pyrimidine-2,4(1H,3H)-dione and 5-(8-((1R,2R)-2-(3-fluorophenyl)cyclopropyl)imidazo[1,2-b]pyridazin-6-yl)pyrimidine-2,4(1H,3H)-dione] |
| 18.6 nM | 6.84 nM | – | O=c1[nH]cc(-c2cc([C@@H]3C[C@H]3c3cccc(F)c3F)c3nccn3n2)c(=O)[nH]1 (racemic) [Example 32, 5-(8-((1S,2S)-2-(2,3-difluorophenyl)cyclopropyl)imidazo[1,2-b]pyridazin-6-yl)pyrimidine-2,4(1H,3H)-dione and 5-(8-((1R,2R)-2-(2,3-difluorophenyl)cyclopropyl)imidazo[1,2-b]pyridazin-6-yl)pyrimidine-2,4(1H,3H)-dione] |
| 18.2 nM | 11.3 nM | – | O=c1[nH]cc(-c2cc([C@@H]3C[C@H]3c3ccc(F)c(F)c3F)c3nccn3n2)c(=O)[nH]1 (racemic) [Example 34, 5-(8-((1S,2S)-2-(2,3,4-trifluorophenyl)cyclopropyl)imidazo[1,2-b]pyridazin-6-yl)pyrimidine-2,4(1H,3H)-dione and 5-(8-((1R,2R)-2-(2,3,4-trifluorophenyl)cyclopropyl)imidazo[1,2-b]pyridazin-6-yl)pyrimidine-2,4(1H,3H)-dione] |
| 24.2 nM | 6.51 nM | – | O=c1[nH]cc(-c2cc([C@@H]3C[C@H]3c3cc(F)c(F)c(F)c3)c3nccn3n2)c(=O)[nH]1 (racemic) [Example 36, 5-(8-((1S,2S)-2-(3,4,5-trifluorophenyl)cyclopropyl)imidazo[1,2-b]pyridazin-6-yl)pyrimidine-2,4(1H,3H)-dione and 5-(8-((1R,2R)-2-(3,4,5-trifluorophenyl)cyclopropyl)imidazo[1,2-b]pyridazin-6-yl)pyrimidine-2,4(1H,3H)-dione] |
| 14.3 nM | 7.29 nM | – | O=c1[nH]cc(-c2cc([C@@H]3C[C@H]3c3cccc(Cl)c3)c3nccn3n2)c(=O)[nH]1 (racemic) [Example 38, 5-(8-((1S,2S)-2-(3-chlorophenyl)cyclopropyl)imidazo[1,2-b]pyridazin-6-yl)pyrimidine-2,4(1H,3H)-dione and 5-(8-((1R,2R)-2-(3-chlorophenyl)cyclopropyl)imidazo[1,2-b]pyridazin-6-yl)pyrimidine-2,4(1H,3H)-dione] |
| 52.5 nM | – | 2.73 nM | O=c1[nH]cc(-c2cc([C@@H]3C[C@H]3c3ccc(OC(F)(F)F)cc3)c3nccn3n2)c(=O)[nH]1 (racemic) [Example 48, 5-(8-((2S,2S)-2-(4-(trifluoromethoxy)phenyl)cyclopropyl)imidazo[1,2-b]pyridazin-6-yl)pyrimidine-2,4(1H,3H)-dione and 5-(8-((1R,2R)-2-(4-(trifluoromethoxy)phenyl)cyclopropyl)imidazo[1,2-b]pyridazin-6-yl)pyrimidine-2,4(1H,3H)-dione] |
| 14.7 nM | – | 1.5 nM | N#Cc1cc([C@@H]2C[C@H]2c2cc(-c3c[nH]c(=O)[nH]c3=O)nn3ccnc23)ccc1F (racemic) [Example 64, 5-((2S,2S)-2-(6-(2,4-dioxo-1,2,3,4-tetrahydropyrimidin-5-yl)imidazo[1,2-b]pyridazin-8-yl)cyclopropyl)-2-fluorobenzonitrile and 54(1R,2R)-2-(6-(2,4-dioxo-1,2,3,4-tetrahydropyrimidin-5-yl)imidazo[1,2-b]pyridazin-8-yl)cyclopropyl)-2-fluorobenzonitrile] |
| 15.7 nM | 3.24 nM | – | O=c1[nH]cc(-c2cc([C@H]3C[C@@H]3c3ccccc3)c3ncc(F)n3n2)c(=O)[nH]1 (racemic) [Example 87, 5-[3-fluoro-8-[(1S,2S)-2-phenylcyclopropyl]imidazo[1,2-b]pyridazin-6-yl]-1H-pyrimidine-2,4-dione and 5-[3-fluoro-8-[(1R,2R)-2-phenylcyclopropyl]imidazo[1,2-b]pyridazin-6-yl]-1H-pyrimidine-2,4-dione] |
| 196 nM | 23.2 nM | – | O=c1[nH]cc(-c2cc([C@H]3C[C@@H]3c3ccccc3)c3nccn3n2)c(=O)[nH]1 (racemic) [Example 104, 5-(8-((2S,2S)-2-phenylcyclopropyl)imidazo[1,2-b]pyridazin-6-yl)pyrimidine-2,4-(1H,3H)-dione and 5-(8-((1R,2R)-2-phenylcyclopropyl)imidazo[1,2-b]pyridazin-6-yl)pyrimidine-2,4-(1H,3H)-dione] |
| 46.8 nM | – | – | O=c1[nH]cc(-c2cc([C@@H]3C[C@H]3C(F)(F)F)c3nccn3n2)c(=O)[nH]1 (racemic) [Example 107, 5-(8-((2S,2S)-2-(trifluoromethyl)cyclopropyl)imidazo[1,2-b]pyridazin-6-yl)pyrimidine-2,4(1H,3H)-dione and 5-(8-((1R,2R)-2-(trifluoromethyl)cyclopropyl)imidazo[1,2-b]pyridazin-6-yl)pyrimidine-2,4(1H,3H)-dione] |
| 35 nM | – | – | O=c1[nH]cc(-c2cc([C@@H]3C[C@@]3(F)c3ccccc3)c3nccn3n2)c(=O)[nH]1 (racemic) [Example 108, 5-(8-((1R,2R)-2-fluoro-2-phenylcyclopropyl)imidazo[1,2-b]pyridazin-6-yl)pyrimidine-2,4(1H,3H)-dione and 5-(8-((1S,2S)-2-fluoro-2-phenylcyclopropyl)imidazo[1,2-b]pyridazin-6-yl)pyrimidine-2,4(1H,3H)-dione] |
| 17.5 nM | 19 nM | – | N#Cc1ccccc1[C@H]1C[C@@H]1c1cc(-c2c[nH]c(=O)[nH]c2=O)nn2ccnc12 [Example 49, 2-((1S,2S)-2-(6-(2,4-dioxo-1,2,3,4-tetrahydropyrimidin-5-yl)imidazo[1,2-b]pyridazin-8-yl)cyclopropyl)benzonitrile] |
| 22.6 nM | – | 3.5 nM | O=c1[nH]cc(-c2cc(N3C[C@@H](F)[C@@H](F)C3)c3nccn3n2)c(=O)[nH]1 [Example 77, 5-[8-[(3S,4R)-3,4-difluoropyrrolidin-1-yl]imidazo[1,2-b]pyridazin-6-yl]-1H-pyrimidine-2,4-dione and 5-[8-[(3R,4S)-3,4-difluoropyrrolidin-1-yl]imidazo[1,2-b]pyridazin-6-yl]-1H-pyrimidine-2,4-dione] |
| 20.5 nM | 2.23 nM | – | COc1ccc([C@H]2C[C@@H]2c2cc(-c3c[nH]c(=O)[nH]c3=O)nn3ccnc23)cc1 [Example 112, 5-(8-((1S,2S)-2-(4-methoxyphenyl)cyclopropyl)imidazo[1,2-b]pyridazin-6-yl)pyrimidine-2,4(1H,3H)-dione] |
| 147 nM | 210 nM | – | COC(=O)c1ccccc1[C@H]1C[C@@H]1c1cc(-c2c[nH]c(=O)[nH]c2=O)nn2ccnc12 [Example 113, methyl 2-((1S,2S)-2-(6-(2,4-dioxo-1,2,3,4-tetrahydropyrimidin-5-yl)imidazo[1,2-b]pyridazin-8-yl)cyclopropyl)benzoate] |
| 31.1 nM | 5.38 nM | – | COc1cccc([C@H]2C[C@@H]2c2cc(-c3c[nH]c(=O)[nH]c3=O)nn3ccnc23)c1 [Example 114, 5-(8-((1S,2S)-2-(3-methoxyphenyl)cyclopropyl)imidazo[1,2-b]pyridazin-6-yl)pyrimidine-2,4(1H,3H)-dione] |
| > 2500 nM | 718 nM | – | O=c1[nH]cc(-c2cc(N3CCC[C@H]3c3ccc(F)cc3)c3nccn3n2)c(=O)[nH]1 [Example 116, (S)-5-(8-(2-(4-fluorophenyl)pyrrolidin-1-yl)imidazo[1,2-b]pyridazin-6-yl)pyrimidine-2,4(1H,3H)-dione] |
